Like-named read-outs stand apart in the source and are kept apart here.
Test: pKA values by half-equivalence method
Format: physicochemical
Conditions: for pKa: amine in water, half neutralized with hydrochloric acid; for pKa decrease from 20 °C to 120 °C (pKa at 20 °C − pKa at 120 °C): difference between 20° C. and 120° C.
Description: The pKA values are suitably measured in aqueous solution with an amine concentration of 0.01 to 0.05 mol/kg at the specified temperature by determining the pH at the half-equivalence point, as shown, for example, by the working examples.
The pKA values of various amines were determined by means of the half-equivalence method. For this purpose, the amines were dissolved in water with a concentration of […] and partly neutralized with half the molar amount of hydrochloric acid (0.005 to 0.025 mol/L). The mass of the amine solutions was 250 g. […] The measurements were conducted at 20 and 120° C. The pH electrode used was the “Hamilton Polylite Plus 120” model, which is calibrated with pH 7 and pH 12 buffer solutions. The measurement was effected in a thermostated closed jacketed vessel with nitrogen blanketing.

[1] = 20° C., read-out: pKA at 20° C.
[2] = 120° C., read-out: pKA at 120° C.

| SMILES | pKa [1] | pKa [2] | pKa decrease from 20 °C to 120 °C (pKa at 20 °C − pKa at 120 °C) |
| --- | --- | --- | --- |
| CN(C)C1CC(C)(C)NC(C)(C)C1 [DATP, 4-dimethylamino-2,2,6,6-tetramethylpiperidine] | 10.7 | 8.1 | 2.6 |
| CC1(C)CC(O)CC(C)(C)N1 [TAAol, 4-hydroxy-2,2,6,6-tetramethylpiperidine] | 10.2 | 7.6 | 2.6 |
